Reference: ChEMBL document CHEMBL1132094, “Human telomerase inhibition by substituted acridine derivatives” (Bioorg Med Chem Lett, 1999)
Active and inactive are the calls of the source. No cut-off for these calls is given here.

Tests used:
SK-OV-3 = test: In vitro cytotoxicity against human ovarian carcinoma cell line SKOV-3 using sulforhodamine B (SRB) assay; type: functional, cell-based
A2780 = test: In vitro cytotoxicity against human ovarian carcinoma cell line A2780 using sulforhodamine B (SRB) assay; type: functional, cell-based
[1] = biological target: DNA polymerase I, thermostable (Thermus aquaticus) (UniProt P19821); test: Ability to inhibit Taq polymerase in vitro at a concentration of 20 uM; NI means No inhibition
[2] = biological target: DNA polymerase I, thermostable (Thermus aquaticus) (UniProt P19821); test: Ability to inhibit Taq polymerase in vitro at a concentration of 50 uM; NI means No inhibition
[3] = biological target: Telomerase reverse transcriptase (Homo sapiens, UniProt O14746); test: Ability to inhibit human telomerase in a modified cell-free TRAP assay using extracts from A2780 cell line
CH1 = test: In vitro cytotoxicity against human ovarian carcinoma cell line CH1 using sulforhodamine B (SRB) assay; type: functional, cell-based
[4] = biological target: DNA polymerase I, thermostable (Thermus aquaticus) (UniProt P19821); test: Ability to inhibit Taq polymerase in vitro at a concentration of 10 uM; NI means No inhibition

Chain of DNA polymerase I, thermostable (Thermus aquaticus) (P19821 whole entry): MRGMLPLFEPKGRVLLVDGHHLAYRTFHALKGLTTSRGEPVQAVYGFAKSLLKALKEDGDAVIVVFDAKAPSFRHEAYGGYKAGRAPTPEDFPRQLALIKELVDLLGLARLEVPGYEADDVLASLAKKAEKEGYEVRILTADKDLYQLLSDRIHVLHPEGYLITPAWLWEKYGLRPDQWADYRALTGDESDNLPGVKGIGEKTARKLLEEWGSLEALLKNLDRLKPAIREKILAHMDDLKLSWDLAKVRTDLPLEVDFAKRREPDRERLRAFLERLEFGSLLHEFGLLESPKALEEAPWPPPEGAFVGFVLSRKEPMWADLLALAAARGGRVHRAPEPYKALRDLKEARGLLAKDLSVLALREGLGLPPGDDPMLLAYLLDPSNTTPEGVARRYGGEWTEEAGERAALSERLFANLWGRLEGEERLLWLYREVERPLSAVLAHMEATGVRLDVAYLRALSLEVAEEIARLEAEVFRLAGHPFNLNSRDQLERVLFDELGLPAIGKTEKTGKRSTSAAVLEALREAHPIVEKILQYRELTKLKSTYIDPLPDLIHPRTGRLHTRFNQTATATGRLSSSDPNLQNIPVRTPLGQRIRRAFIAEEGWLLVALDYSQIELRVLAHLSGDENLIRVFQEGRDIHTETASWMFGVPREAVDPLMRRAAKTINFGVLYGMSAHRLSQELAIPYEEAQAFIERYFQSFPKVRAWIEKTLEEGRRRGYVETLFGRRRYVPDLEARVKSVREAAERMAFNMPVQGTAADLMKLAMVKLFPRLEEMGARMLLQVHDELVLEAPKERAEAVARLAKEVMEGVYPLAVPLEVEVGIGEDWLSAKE
Chain of Telomerase reverse transcriptase (O14746 whole entry): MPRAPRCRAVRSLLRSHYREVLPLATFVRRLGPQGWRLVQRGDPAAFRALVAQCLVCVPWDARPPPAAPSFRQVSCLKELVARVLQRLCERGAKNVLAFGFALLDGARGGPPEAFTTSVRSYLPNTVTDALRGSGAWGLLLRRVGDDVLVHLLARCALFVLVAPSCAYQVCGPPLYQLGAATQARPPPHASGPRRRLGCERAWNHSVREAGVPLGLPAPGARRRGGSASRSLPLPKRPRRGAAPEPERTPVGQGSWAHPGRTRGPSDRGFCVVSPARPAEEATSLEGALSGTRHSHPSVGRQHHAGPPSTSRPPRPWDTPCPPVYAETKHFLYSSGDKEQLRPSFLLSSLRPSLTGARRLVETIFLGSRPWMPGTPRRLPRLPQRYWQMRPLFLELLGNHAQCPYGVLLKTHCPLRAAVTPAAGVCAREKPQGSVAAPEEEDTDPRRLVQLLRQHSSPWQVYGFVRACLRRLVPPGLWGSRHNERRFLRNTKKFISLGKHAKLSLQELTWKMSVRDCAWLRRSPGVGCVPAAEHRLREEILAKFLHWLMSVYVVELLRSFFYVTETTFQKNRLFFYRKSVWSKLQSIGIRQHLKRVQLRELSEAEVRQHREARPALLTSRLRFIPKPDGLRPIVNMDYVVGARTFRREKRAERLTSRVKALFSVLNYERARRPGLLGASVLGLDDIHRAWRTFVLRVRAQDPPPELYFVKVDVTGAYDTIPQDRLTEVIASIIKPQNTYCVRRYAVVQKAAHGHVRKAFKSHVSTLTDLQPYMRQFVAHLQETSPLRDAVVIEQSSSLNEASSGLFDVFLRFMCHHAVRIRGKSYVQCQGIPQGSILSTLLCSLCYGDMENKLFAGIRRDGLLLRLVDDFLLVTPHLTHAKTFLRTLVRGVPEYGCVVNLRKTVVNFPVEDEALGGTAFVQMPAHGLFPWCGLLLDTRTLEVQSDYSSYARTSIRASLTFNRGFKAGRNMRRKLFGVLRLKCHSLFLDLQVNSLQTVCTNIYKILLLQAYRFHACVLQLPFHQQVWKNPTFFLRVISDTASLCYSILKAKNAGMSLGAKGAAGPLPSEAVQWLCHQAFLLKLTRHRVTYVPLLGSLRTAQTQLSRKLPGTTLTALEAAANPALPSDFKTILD

Row | inhibition [1] | inhibition [2] | IC50 [3] [µM] | inhibition [4] | SMILES | IC50 (SK-OV-3) [nM] | IC50 (A2780) [nM] | IC50 (CH1) [nM]
1 | inactive | inactive | 2.8 | inactive | O=C(CCN1CCCCC1)Nc1ccc2cc3ccc(NC(=O)CCN4CCCCC4)cc3nc2c1 | 540 | 1700 | 2250
2 | inactive | inactive | 4.1 | inactive | O=C(CCN1CCCCC1CCO)Nc1ccc2cc3ccc(NC(=O)CCN4CCCCC4CCO)cc3nc2c1 (configuration not stated) | 10500 | 3200 | 11000
3 | inactive | inactive | 5.8 | inactive | CCN(CC)CCC(=O)Nc1ccc2cc3ccc(NC(=O)CCN(CC)CC)cc3nc2c1 | 2250 | 570 | 2450
4 | inactive | inactive | 2.7 | inactive | CCC1CCCCN1CCC(=O)Nc1ccc2cc3ccc(NC(=O)CCN4CCCCC4CC)cc3nc2c1 (configuration not stated) | 3900 | 2200 | 2200
5 | inactive | inactive | 4.4 | inactive | CC1CCCN(CCC(=O)Nc2ccc3cc4ccc(NC(=O)CCN5CCCC(C)C5)cc4nc3c2)C1 (configuration not stated) | 2850 | 2100 | 2200
6 | inactive | inactive | 8 | inactive | O=C(CCN1CCC(O)CC1)Nc1ccc2cc3ccc(NC(=O)CCN4CCC(O)CC4)cc3nc2c1 | 13000 | 6200 | 15000
7 | inactive | inactive | > 50 | inactive | CC1(C)CC2CC(C)(CN2CCC(=O)Nc2ccc3cc4ccc(NC(=O)CCN5CC6(C)CC5CC(C)(C)C6)cc4nc3c2)C1 | 2200 | 500 | 540
8 | inactive | inactive | > 50 | inactive | O=C(CCN1CCOCC1)Nc1ccc2cc3ccc(NC(=O)CCN4CCOCC4)cc3nc2c1 | 13000 | 3100 | 15000
9 | inactive | inactive | 1.35 | inactive | CC1CCN(CCC(=O)Nc2ccc3cc4ccc(NC(=O)CCN5CCC(C)CC5)cc4nc3c2)CC1 | 2400 | 2150 | 2050
10 | inactive | inactive | > 50 | inactive | O=C(CCN1CCC(Cc2ccccc2)CC1)Nc1ccc2cc3ccc(NC(=O)CCN4CCC(Cc5ccccc5)CC4)cc3nc2c1 | 880 | 310 | 110
11 | inactive | inactive | 8.2 | inactive | CN(C)CCC(=O)Nc1ccc2cc3ccc(NC(=O)CCN(C)C)cc3nc2c1 | 2500 | 750 | 9800
12 | inactive | inactive | > 50 | inactive | O=C(CCN1CCCCCCC1)Nc1ccc2cc3ccc(NC(=O)CCN4CCCCCCC4)cc3nc2c1 | 2300 | 1300 | 2200
13 | inactive | inactive | 5.4 | inactive | O=C(CCN1CCCCC1CO)Nc1ccc2cc3ccc(NC(=O)CCN4CCCCC4CO)cc3nc2c1 (configuration not stated) | 7000 | 2300 | 10500
14 | inactive | inactive | 2.6 | inactive | CC1CCCCN1CCC(=O)Nc1ccc2cc3ccc(NC(=O)CCN4CCCCC4C)cc3nc2c1 (configuration not stated) | 3400 | 1750 | 2300
15 | inactive | inactive | 3.1 | inactive | O=C(CCN1CCCCCC1)Nc1ccc2cc3ccc(NC(=O)CCN4CCCCCC4)cc3nc2c1 | 2500 | 1100 | 1850

Row | SMILES | inhibition [1] | inhibition [2] | IC50 [3] [µM] | inhibition [4] | IC50 (SK-OV-3) [nM] | IC50 (A2780) [nM] | IC50 (CH1) [nM]
16 | O=C(CCN1CCCC1)Nc1ccc2cc3ccc(NC(=O)CCN4CCCC4)cc3nc2c1 | inactive | inactive | 5.2 | inactive | 2600 | 2650 | 8200
